Results on six compounds are retold here after paper PMC2896556 (Biochemistry, 2010).

SMILES strings stand for the structures. Like-named read-outs stand apart in the source and are kept apart here.

One experiment has as its system RT subunit interactions. Particulars: cited from earlier work.
For a further experiment, the system named is p66/p66. The conditions noted are these: cited from earlier work.
In another experiment the test system is p51/p51. Particulars: cited from earlier work.
The target in another experiment is p66 (Human immunodeficiency virus type 1 group M subtype B, UniProt P04585). Further details: species or system HIV-1. The conditions noted are these: 3 μM p66, 25 μM NNRTI, 1 wk.
Experiment [1] concerns RT dimerization. The conditions noted are these: yeast-two hybrid; cited from earlier work.
The subject of experiment [2] is RT dimerization. Particulars: urea denaturation; cited from earlier work.

Regarding `CC(C)(C)c1ccc(C(=O)NN=Cc2c(O)ccc3ccccc23)cc1` [BBNH, N-(4-tert-butylbenzoyl)-2-hydroxy-1-naphthaldehyde hydrazone], the “effect on RT subunit interactions” value with RT subunit interactions is “weaken subunit interactions”. For the compound `CC(C)(C)c1ccc(C(=O)NN=Cc2ccccc2O)cc1` [BBSH, (4-tert-butylbenzoyl)-2-hydroxy-1-salicylyl hydrazone], in the experiment on RT subunit interactions, the “effect on RT subunit interactions” value is listed as “weaken subunit interactions”. On to `CCn1c(=O)c(C)cn([C@@H]2O[C@H](CO[Si](C)(C)C(C)(C)C)C3(OS(=O)(=O)C=C3N)[C@H]2O[Si](C)(C)C(C)(C)C)c1=O` (stereo partly drawn) [TSAOe^3T, 1-(spiro{4”-amino-2”,2”-dioxo-1”,2”-oxathiole-5”,3′-[2′,5′-bis-O-(tert-butyldimethylsilyl)-β-D-ribofuranosyl]})-3-ethylthymine], for which the “effect on RT subunit interactions” value with RT subunit interactions is given as “weaken subunit interactions”. As for `CC(C)Nc1cccnc1N1CCN(C(=O)c2cc3cc(NS(C)(=O)=O)ccc3[nH]2)CC1` [delavirdine], the “effect on RT subunit interactions” value in the experiment on RT subunit interactions is on record as “little or no effect”.

On to `O=C1Nc2ccc(Cl)cc2[C@@](C#CC2CC2)(C(F)(F)F)O1` [efavirenz], for which the “enhancement of dimer formation” value in the experiment on p66/p66 is 50 fold; with p51/p51, 600 fold. Also, the “effect on RT subunit interactions” value with RT subunit interactions is “enhance subunit interactions”.

Consider `Cc1ccnc2c1NC(=O)c1cccnc1N2C1CC1` [nevirapine], for which, on p66, the “effect on p66 dimerization” value was “enhance dimerization”. For the same compound, in the experiment on RT subunit interactions, the “effect on RT subunit interactions” value is given as “enhance subunit interactions”. In addition, the entries for the “effect on RT dimerization” value in the experiment with RT dimerization [1] and in the experiment on RT dimerization [2] were “small enhancement of dimerization” and “no effect”, respectively.
